{"source": "patent US6337182B1", "about": "“Method for the quantitative determination of DNA sequences” (Dade Behring Marburg GmbH, priority 1990, dated 2002)", "system": "TaqI-endonuclease site TCGA (2508-2511) of exon 3 of the c-Ha-ras gene", "assay": "Detection of ethylnitrosourea induced mutations in the TaqI site of c-Ha-ras exon 3 in cultured human fibroblasts (selective PCR, plaque hybridization)", "format": "cell-based", "procedure": "Monolayer cultures of human foreskin fibroblasts 3229 (other cell lines of the same origin work equally well) are treated with the carcinogen ethylnitrosourea (ENU, 2mM) in DMSO or sham-treated with DMSO only and harvested 3 days later. Total DNA is extracted and digested exhaustively with BamHI yielding a 6.6 Kb fragment containing the c-Ha-ras gene. The digestion mixture is separated on a 1% agarose gel and the DNA in the region from 6.0-7.0 Kb eluted in a “Biotrap” apparatus as described in Example I. The completeness of the BamHI digestion and the recovery of the c-Ha-ras sequences from the gel are monitored by Southern-blotting with a 6.6 Kb c-Ha-ras probe. “Biotrap” purified DNA (6.0-7.0 Kb, corresponding to 25 μg BamHI digested genomic DNA) is then exhaustively digested with TaqI endonuclease and a fragment containing the TaqI site 2508-2511 (TCGA) of the c-Ha-ras gene amplified as described below and illustrated in FIG. 2. At the outset of the amplification 10 copies of an authentic “standard” sequence are added which contain the sequence ACGT at residues 2508-2511 (and a G-instead of the C residue at position 2503), but are otherwise identical to wt c-Ha-ras.\nThe digested DNA was amplified, utilizing a “nested primer approach” to selectively amplify only DNA containing a mutated TaqI restriction site.\n1. Amplification Cycles 1-15. The cycles 1-15 were conducted with the outer primers (see FIG. 2) yielding a 237 bp fragment. Each cycle consists of a melting temperature of 81° C. (1.1 min), an annealing temperature of 55° C. (0.8 min), and an extension temperature of 65° C. (0.3 min). The initial contents of each amplification tube are as follows: 2.5 μl of “digested DNA” (i.e. TaqI digested 6.0-7.0 Kb BamHI fragment population described above); 0.75 μg of each outer primer (primers 1 and 2, see FIG. 2); 25 mM each of dATP, dCTP, dGTP and dTTP; 21% DMSO; 66.6 mM Tris-HCl, pH 8.8, 16.6 mM ammonium sulfate; 6.7 mM magnesium chloride; 10 mM 2-merc:aptoethanol, 6.7 μM EDTA, and 1.5 units Taq polymerase, in a total volume of 25 μl. To prevent evaporation during temperature cycling, an overlay of 3-4 drops of paraffin oil is added to each tube. (Note: Taq polymerase is added to the tubes after an initial melting period of 3 minutes at 92° C. Subsequently, one μl additions of a TaqI endonuclease-containing TaqI Mix are made to the appropriate amplification tubes during the annealing periods of cycles 1, 3, 5, 7 , 9, 11, 13 and 15). The TaqI mix contains 25 mM each of DATP, dCTP, dGTP and dTTP; 21% DMSO; 66.6 mM Tris-HC1, pH 8.8; 16.6 mM ammonium sulfate; 6.7 mM magnesium chloride; 10 mM 2-mercaptoethanol; 6.7 μm EDTA; 0.12 units/μl Taq polymerase and 1.2 units/μl TaqI endonuclease.\nAmplification cycles 16-25 are conducted at a higher melting temprature (91° C.) and a lower DMSO concentration (12%) with the outer primers (primers 1 and 2, see FIG. 2). Each cycle consists of a melting temperature of 91° C. (0.8 min) and an annealing temperature of 57° C. (0.4 min). After the 15th cycle, the DMSO concentration is reduced to 12% by transferring 16 μl of each amplification solution to new tubes which contain 11 μl of a DMSO-free mixture consisting of 229 ng of each outer primer/11 μl; 25 mM each of dATP, dCTP, dGTP and dTTP; 66.6 mM Tris-HCl, pH 8.8; 16.6 mM ammonium sulfate; 6.7 mM magnesium chloride, 10 mM 2.-mercaptoethanol and 6.7 μM EDTA. Paraffin oil (3 drops) is added to each tube and the 16th cycle begun with an initial melting period of 3 min at 92° C., after which 1.5 units of Taq polymerase is added to each tube.\nAmplification cycles 26-41 are conducted with the inner primers (primers 3 and 4, see FIG. 2), which contain “EcoRI tails” to facilitate later ligation into phage arms. With the chosen inner primers a 184 bp fragment is synthesized. In order to reduce competition between outer and inner primers, the outer primer concentration is reduced by a factor of 121 relative to the inner primer concentration. […]", "key": {"[1]": {"conditions": "mean of 4 Petri dishes, 2 mM ethylnitrosourea, human fibroblasts (3229)"}}, "note": "Several values for one entry are separate records, joined by “and”; a condition that tells them apart may be missing. Equal values may be shown once.", "data": [{"smiles": "CCN(N=O)C(N)=O", "note": "[ethylnitrosourea]", "values": [{"measurement": "copies of mutated sequence TCTA in the original DNA sample", "setting": "25 μg DNA, 10 copies of standard gave 17% plaques, mutation 7%", "result": 6, "unit": "copies"}, {"measurement": "plaques containing wt sequence DNA or any of the remaining 11 possible base-pair mutations", "setting": "2 mM ethylnitrosourea, human fibroblasts (3229)", "result": "No plaques were detected"}, {"measurement": "frequency of induced base-pair mutation TCGA→TCTA at sequence 2508-2511 of the human c-Ha-ras gene", "setting": "2 mM, human fibroblasts 3229, estimated against 10 copies of standard sequence", "result": "~7.5 mutations in 10^7 c-Ha-ras genes"}, {"measurement": "mutation frequency", "setting": "TCGA→TCTA, 2 mM, human fibroblasts 3229, 25 μg DNA", "result": "~7.5×10^−7 per c-Ha-ras gene"}, {"measurement": "plaques containing mutated sequence TCTA, mean", "setting": "[1]", "result": 13.2}, {"measurement": "plaques containing mutated sequence TCTA, mean share", "setting": "[1]", "result": "(7%)"}, {"measurement": "plaques containing mutated sequence TCTA", "setting": "number of plaques per Petri dish, DNA from 3 × 10^6 human fibroblasts (3229) treated with 2 mM ethylnitrosourea, harvested 3 days later", "result": "16 and 13 and 12"}]}]}
